The PolyMetriX glass transition set
± gives the standard deviation of the reports.

What was measured:
[1] = not given; remark: listed apart in the source

SMILES	glass transition temperature [°C]	glass transition temperature [1] [°C]
*C1=C(Cl)C(=O)N(c2ccc(Cc3ccc(N4C(=O)C(Cl)=C(Oc5ccc(C(C)(C)c6ccc(*)cc6)cc5)C4=O)cc3)cc2)C1=O (repeat unit)	173.00	
*c1ccc(-c2ccc(N3C(=O)c4ccc(-c5ccc6c(c5)C(=O)N(*)C6=O)cc4C3=O)cc2OC(F)(F)F)c(OC(F)(F)F)c1 (repeat unit)	335.00	
*c1ccc(Oc2ccc(C(C)(C)c3ccc(Oc4ccc(-n5c(=O)c6cc7c(=O)n(*)c(=O)c7cc6c5=O)cc4)cc3)cc2)cc1 (repeat unit)	283.00	
*c1ccc2c(c1)C(=O)N(c1ccc(Oc3c(F)c(F)c(-c4c(F)c(F)c(Oc5ccc(N6C(=O)c7ccc(C(*)(C(F)(F)F)C(F)(F)F)cc7C6=O)cc5)c(F)c4F)c(F)c3F)cc1)C2=O (repeat unit)	271.20	
*c1cc(N2C(=O)c3ccc(-c4ccc5c(c4)C(=O)N(*)C5=O)cc3C2=O)ccc1OCC(F)(F)C(F)(F)C(F)(F)C(F)(F)C(F)(F)C(F)(F)C(F)(F)C(F)(F)C(F)(F)C(F)(F)F (repeat unit)	230.00	
*c1cccc(Oc2ccc(P(=O)(c3ccccc3)c3ccc(Oc4ccc(N5C(=O)c6ccc(-c7ccc8c(c7)C(=O)N(*)C8=O)cc6C5=O)cc4)cc3)cc2)c1 (repeat unit)	241.00	
*c1ccc2c(c1)C(=O)N(c1ccc(OCC(F)(F)C(F)(F)C(F)(F)C(F)(F)C(F)(F)C(F)(F)C(F)(F)C(F)(F)C(F)(F)C(F)(F)F)c(N3C(=O)c4ccc(C(*)(C(F)(F)F)C(F)(F)F)cc4C3=O)c1)C2=O (repeat unit)	189.00	
*c1ccc(-c2ccc(N3C(=O)c4cc5c(cc4C3=O)C(C(F)(F)F)(C(F)(F)F)c3cc4c(cc3O5)C(=O)N(*)C4=O)cc2OC(C)(F)F)c(OC(C)(F)F)c1 (repeat unit)	363.00	
*Oc1cccc(C(=O)c2ccc(Oc3cccc4c3C(=O)N(c3ccc(Oc5ccc(N6C(=O)c7cccc(*)c7C6=O)cc5)cc3)C4=O)cc2)c1 (repeat unit)	252.00	
*c1cc(N2C(=O)c3ccc(-c4ccc5c(c4)C(=O)N(*)C5=O)cc3C2=O)ccc1OCC(F)(F)C(F)(F)C(F)(F)C(F)(F)C(F)(F)C(F)(F)C(F)(F)F (repeat unit)	250.00	
*Oc1cccc(C(C)(C)c2ccc(Oc3ccc4c(c3)C(=O)N(c3ccc(Oc5cccc(Oc6ccc(N7C(=O)c8ccc(*)cc8C7=O)cc6)c5)cc3)C4=O)cc2)c1 (repeat unit)	178.00	
*Oc1cccc(Sc2ccc(Oc3cccc4c3C(=O)N(c3ccc(Oc5cccc(Oc6ccc(N7C(=O)c8cccc(*)c8C7=O)cc6)c5)cc3)C4=O)cc2)c1 (repeat unit)	230.00	
*c1cccc2c1C(=O)N(c1ccc(C3(c4ccc(N5C(=O)c6cccc(*)c6C5=O)c(C)c4)c4ccccc4-c4ccccc43)cc1C)C2=O (repeat unit)	313.00 ± 2.8	
*Oc1cccc(C(C)(C)c2ccc(Oc3cccc4c3C(=O)N(c3ccc(Oc5ccc(N6C(=O)c7cccc(*)c7C6=O)cc5)cc3)C4=O)cc2)c1 (repeat unit)	235.00	
*c1cc(N2C(=O)c3ccc(-c4ccc5c(c4)C(=O)N(*)C5=O)cc3C2=O)ccc1OCC(F)(F)C(F)(F)C(F)(F)F (repeat unit)	300.00	
*c1ccc2c(c1)C(=O)N(c1ccc(-c3ccc(N4C(=O)c5ccc(C(*)(C(F)(F)F)C(F)(F)F)cc5C4=O)cc3-c3cc(C(F)(F)F)cc(C(F)(F)F)c3)c(-c3cc(C(F)(F)F)cc(C(F)(F)F)c3)c1)C2=O (repeat unit)	263.00	
*Sc1cccc2c1C(=O)N(c1ccc(Oc3ccc(Oc4ccc(N5C(=O)c6cccc(*)c6C5=O)cc4)cc3)cc1)C2=O (repeat unit)	250.00	
*C(=O)Nc1ccc2ccccc2c1-c1c(NC(=O)c2ccc3c(c2)C(=O)N(c2ccc(Oc4ccc(N5C(=O)c6ccc(*)cc6C5=O)cc4)cc2)C3=O)ccc2ccccc12 (repeat unit)	287.80	
*Oc1cccc(Oc2ccc(Oc3cccc4c3C(=O)N(c3ccc(Oc5cccc(Oc6ccc(N7C(=O)c8cccc(*)c8C7=O)cc6)c5)cc3)C4=O)cc2)c1 (repeat unit)	198.00	
*CC(*)(C)C(=O)Oc1cc(C)ccc1C (repeat unit)		111.00

Now from value to molecule, other results behind:

glass transition temperature [°C]	SMILES	glass transition temperature [1] [°C]
252.00	*C(=O)c1ccc2c(c1)C(=O)N(c1ccc(Oc3cccc(N4C(=O)c5ccc(*)cc5C4=O)c3)cc1)C2=O (repeat unit)	
209.00	*Oc1cccc(Sc2ccc(Oc3ccc4c(c3)C(=O)N(c3cccc(N5C(=O)c6ccc(*)cc6C5=O)c3)C4=O)cc2)c1 (repeat unit)	
218.00	*Oc1ccc(Sc2ccc(Oc3ccc4c(c3)C(=O)N(c3cc(N5C(=O)c6ccc(*)cc6C5=O)cc(C(F)(F)F)c3)C4=O)cc2)cc1 (repeat unit)	
239.00 ± 4	*Oc1ccc2c(c1)C(=O)N(c1cccc(C(=O)c3cccc(N4C(=O)c5ccc(*)cc5C4=O)c3)c1)C2=O (repeat unit)	
184.00	*Oc1cccc(Oc2ccc(Oc3ccc4c(c3)C(=O)N(c3ccc(Oc5cccc(Oc6ccc(N7C(=O)c8ccc(*)cc8C7=O)cc6)c5)cc3)C4=O)cc2)c1 (repeat unit)	
253.00	*C(=O)c1cccc(Cc2ccc3c(c2)C(=O)N(c2cc(N4C(=O)c5ccc(*)cc5C4=O)cc(C(F)(F)F)c2)C3=O)c1 (repeat unit)	
267.50 ± 8.4	*Sc1ccc2c(c1)C(=O)N(c1ccc(Oc3ccc(N4C(=O)c5cccc(*)c5C4=O)cc3)cc1)C2=O (repeat unit)	
234.00	*Oc1cccc2c1C(=O)N(c1cccc(C(=O)c3cccc(N4C(=O)c5cccc(*)c5C4=O)c3)c1)C2=O (repeat unit)	
227.00	*Oc1cccc(Oc2ccc(Oc3ccc4c(c3)C(=O)N(c3cccc(N5C(=O)c6ccc(*)cc6C5=O)c3)C4=O)cc2)c1 (repeat unit)	
310.00	*c1ccc2c(c1)C(=O)N(c1cc(N3C(=O)c4ccc(S(*)(=O)=O)cc4C3=O)cc(C(F)(F)F)c1)C2=O (repeat unit)	
384.00	*C(=O)c1ccc2c(c1)C(=O)N(c1ccc(C)c(N3C(=O)c4ccc(*)cc4C3=O)c1C)C2=O (repeat unit)	
331.00	*c1ccc2c(c1)C(=O)N(c1ccc(-c3ccc(N4C(=O)c5ccc(C(*)(C(F)(F)F)C(F)(F)F)cc5C4=O)cc3C#N)c(C#N)c1)C2=O (repeat unit)	
